{"source": "patent US8680012B2", "about": "“4-phenyl-pyrane-3,5-diones,4-phenyl-thiopyrane-3,6-diones and cyclohexanetriones as novel herbicides” (Syngenta Crop Protection LLC, priority 2006, dated 2014)", "key": {"[1]": {"system": "Alopecurus myosuroides (ALOMY)", "assay": "Example A pre-emergence herbicidal activity, glasshouse pot test", "type": "in vivo", "details": "480 h, rate 250 g/ha, evaluated 20 days after spraying, read-out: Pre-emergence activity ALOMY (100=total damage to plant; 0=no damage to plant)", "in_short": "(§1)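 Seeds are sown in soil-filled pots and sprayed either 1 day later (pre-emergence) or after 10 days of growth (post-emergence) with the active ingredient in an aqueous formulation containing an emulsifier, solvents and a surfactant. Injury is scored after 20 further days (pre) or 15 further days (post).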"}, "Avena fatua (AVEFA) [2]": {"system": "Avena fatua (AVEFA)", "assay": "Example A pre-emergence herbicidal activity, glasshouse pot test", "type": "in vivo", "details": "480 h, rate 250 g/ha, evaluated 20 days after spraying, read-out: Pre-emergence activity AVEFA (100=total damage to plant; 0=no damage to plant)", "in_short": "as §1"}, "[3]": {"system": "Digitaria sanguinalis (DIGSA)", "assay": "Example A pre-emergence herbicidal activity, glasshouse pot test", "type": "in vivo", "details": "480 h, rate 250 g/ha, evaluated 20 days after spraying, read-out: Pre-emergence activity DIGSA (100=total damage to plant; 0=no damage to plant)", "in_short": "as §1"}, "[4]": {"system": "Echinochloa crus-galli (ECHCG)", "assay": "Example A pre-emergence herbicidal activity, glasshouse pot test", "type": "in vivo", "details": "480 h, rate 250 g/ha, evaluated 20 days after spraying, read-out: Pre-emergence activity ECHCG (100=total damage to plant; 0=no damage to plant)", "in_short": "as §1"}, "Lolium perenne (LOLPE) [5]": {"system": "Lolium perenne (LOLPE)", "assay": "Example A pre-emergence herbicidal activity, glasshouse pot test", "type": "in vivo", "details": "480 h, rate 250 g/ha, evaluated 20 days after spraying, read-out: Pre-emergence activity LOLPE (100=total damage to plant; 0=no damage to plant)", "in_short": "as §1"}, "Setaria faberi (SETFA) [6]": {"system": "Setaria faberi (SETFA)", "assay": "Example A pre-emergence herbicidal activity, glasshouse pot test", "type": "in vivo", "details": "480 h, rate 250 g/ha, evaluated 20 days after spraying, read-out: Pre-emergence activity SETFA (100=total damage to plant; 0=no damage to plant)", "in_short": "as §1"}, "[7]": {"system": "Alopecurus myosuroides (ALOMY)", "assay": "Example A post-emergence herbicidal activity, glasshouse pot test", "type": "in vivo", "details": "360 h, rate 125 g/ha, evaluated 15 days after spraying, read-out: Post-emergence activity ALOMY (100=total damage to plant; 0=no damage to plant)", "in_short": "as §1"}, "Avena fatua (AVEFA) [8]": {"system": "Avena fatua (AVEFA)", "assay": "Example A post-emergence herbicidal activity, glasshouse pot test", "type": "in vivo", "details": "360 h, rate 125 g/ha, evaluated 15 days after spraying, read-out: Post-emergence activity AVEFA (100=total damage to plant; 0=no damage to plant)", "in_short": "as §1"}, "[9]": {"system": "Digitaria sanguinalis (DIGSA)", "assay": "Example A post-emergence herbicidal activity, glasshouse pot test", "type": "in vivo", "details": "360 h, rate 125 g/ha, evaluated 15 days after spraying, read-out: Post-emergence activity DIGSA (100=total damage to plant; 0=no damage to plant)", "in_short": "as §1"}, "[10]": {"system": "Echinochloa crus-galli (ECHCG)", "assay": "Example A post-emergence herbicidal activity, glasshouse pot test", "type": "in vivo", "details": "360 h, rate 125 g/ha, evaluated 15 days after spraying, read-out: Post-emergence activity ECHCG (100=total damage to plant; 0=no damage to plant)", "in_short": "as §1"}, "Lolium perenne (LOLPE) [11]": {"system": "Lolium perenne (LOLPE)", "assay": "Example A post-emergence herbicidal activity, glasshouse pot test", "type": "in vivo", "details": "360 h, rate 125 g/ha, evaluated 15 days after spraying, read-out: Post-emergence activity LOLPE (100=total damage to plant; 0=no damage to plant)", "in_short": "as §1"}, "Setaria faberi (SETFA) [12]": {"system": "Setaria faberi (SETFA)", "assay": "Example A post-emergence herbicidal activity, glasshouse pot test", "type": "in vivo", "details": "360 h, rate 125 g/ha, evaluated 15 days after spraying, read-out: Post-emergence activity SETFA (100=total damage to plant; 0=no damage to plant)", "in_short": "as §1"}, "[13]": {"system": "Alopecurus myosuroides (ALOMY)", "assay": "Example B pre-emergence herbicidal activity, glasshouse pot test", "type": "in vivo", "details": "312 h, rate 250 g/ha, evaluated after 13 days, read-out: Pre-emergence activity ALOMY (100=total damage to plant; 0=no damage to plant)", "in_short": "(§2)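 Visual injury score (0 none to 100 total plant damage) recorded 13 days after spraying. Plants received an aqueous spray of compound in 50:50 acetone/water with 0.5% Tween 20, either one day after sowing or after eight days of cultivation, in pots kept under controlled glasshouse conditions.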"}, "[14]": {"system": "Amaranthus retroflexus (AMARE)", "assay": "Example B pre-emergence herbicidal activity, glasshouse pot test", "type": "in vivo", "details": "312 h, rate 250 g/ha, evaluated after 13 days, read-out: Pre-emergence activity AMARE (100=total damage to plant; 0=no damage to plant)", "in_short": "as §2"}, "Avena fatua (AVEFA) [15]": {"system": "Avena fatua (AVEFA)", "assay": "Example B pre-emergence herbicidal activity, glasshouse pot test", "type": "in vivo", "details": "312 h, rate 250 g/ha, evaluated after 13 days, read-out: Pre-emergence activity AVEFA (100=total damage to plant; 0=no damage to plant)", "in_short": "as §2"}, "[16]": {"system": "Echinochloa crus-galli (ECHCG)", "assay": "Example B pre-emergence herbicidal activity, glasshouse pot test", "type": "in vivo", "details": "312 h, rate 250 g/ha, evaluated after 13 days, read-out: Pre-emergence activity ECHCG (100=total damage to plant; 0=no damage to plant)", "in_short": "as §2"}, "Setaria faberi (SETFA) [17]": {"system": "Setaria faberi (SETFA)", "assay": "Example B pre-emergence herbicidal activity, glasshouse pot test", "type": "in vivo", "details": "312 h, rate 250 g/ha, evaluated after 13 days, read-out: Pre-emergence activity SETFA (100=total damage to plant; 0=no damage to plant)", "in_short": "as §2"}, "[18]": {"system": "Alopecurus myosuroides (ALOMY)", "assay": "Example B post-emergence herbicidal activity, glasshouse pot test", "type": "in vivo", "details": "312 h, rate 250 g/ha, evaluated after 13 days, read-out: Post-emergence activity ALOMY (100=total damage to plant; 0=no damage to plant)", "in_short": "as §2"}, "[19]": {"system": "Amaranthus retroflexus (AMARE)", "assay": "Example B post-emergence herbicidal activity, glasshouse pot test", "type": "in vivo", "details": "312 h, rate 250 g/ha, evaluated after 13 days, read-out: Post-emergence activity AMARE (100=total damage to plant; 0=no damage to plant)", "in_short": "as §2"}, "Avena fatua (AVEFA) [20]": {"system": "Avena fatua (AVEFA)", "assay": "Example B post-emergence herbicidal activity, glasshouse pot test", "type": "in vivo", "details": "312 h, rate 250 g/ha, evaluated after 13 days, read-out: Post-emergence activity AVEFA (100=total damage to plant; 0=no damage to plant)", "in_short": "as §2"}, "[21]": {"system": "Echinochloa crus-galli (ECHCG)", "assay": "Example B post-emergence herbicidal activity, glasshouse pot test", "type": "in vivo", "details": "312 h, rate 250 g/ha, evaluated after 13 days, read-out: Post-emergence activity ECHCG (100=total damage to plant; 0=no damage to plant)", "in_short": "as §2"}, "Setaria faberi (SETFA) [22]": {"system": "Setaria faberi (SETFA)", "assay": "Example B post-emergence herbicidal activity, glasshouse pot test", "type": "in vivo", "details": "312 h, rate 250 g/ha, evaluated after 13 days, read-out: Post-emergence activity SETFA (100=total damage to plant; 0=no damage to plant)", "in_short": "as §2"}}, "data": [{"smiles": "CCc1ccc(-c2ccc(F)cc2)cc1C1=C(O)[C@@]2(C)CC[C@H](O2)C1=O", "note": "[Compound A-38]", "values": [{"measurement": "pest or weed control at 250 g/ha", "setting": "[1]", "value": 50, "unit": "%"}, {"measurement": "pest or weed control at 250 g/ha", "setting": "Avena fatua (AVEFA) [2]", "value": 10, "unit": "%"}, {"measurement": "pest or weed control at 250 g/ha", "setting": "[3]", "value": 30, "unit": "%"}, {"measurement": "pest or weed control at 250 g/ha", "setting": "[4]", "value": 70, "unit": "%"}, {"measurement": "pest or weed control at 250 g/ha", "setting": "Lolium perenne (LOLPE) [5]", "value": 60, "unit": "%"}, {"measurement": "pest or weed control at 250 g/ha", "setting": "Setaria faberi (SETFA) [6]", "value": 90, "unit": "%"}, {"measurement": "pest or weed control at 125 g/ha", "setting": "[7]", "value": 50, "unit": "%"}, {"measurement": "pest or weed control at 125 g/ha", "setting": "Avena fatua (AVEFA) [8]", "value": 60, "unit": "%"}, {"measurement": "pest or weed control at 125 g/ha", "setting": "[9]", "value": 70, "unit": "%"}, {"measurement": "pest or weed control at 125 g/ha", "setting": "[10]", "value": 90, "unit": "%"}, {"measurement": "pest or weed control at 125 g/ha", "setting": "Lolium perenne (LOLPE) [11]", "value": 0, "unit": "%"}, {"measurement": "pest or weed control at 125 g/ha", "setting": "Setaria faberi (SETFA) [12]", "value": 80, "unit": "%"}, {"measurement": "melting point", "value": "165 to 167", "unit": "°C"}]}, {"smiles": "CCc1ccc(-c2ccc(Cl)cc2)cc1C1=C(O)C(C)(C)OC(C)(COC)C1=O", "note": "(stereo not drawn) [Compound A-99]", "values": [{"measurement": "pest or weed control at 250 g/ha", "setting": "[13]", "value": 80, "unit": "%"}, {"measurement": "pest or weed control at 250 g/ha", "setting": "[14]", "value": 20, "unit": "%"}, {"measurement": "pest or weed control at 250 g/ha", "setting": "Avena fatua (AVEFA) [15]", "value": 50, "unit": "%"}, {"measurement": "pest or weed control at 250 g/ha", "setting": "[16]", "value": 100, "unit": "%"}, {"measurement": "pest or weed control at 250 g/ha", "setting": "Setaria faberi (SETFA) [17]", "value": 100, "unit": "%"}, {"measurement": "pest or weed control at 250 g/ha", "setting": "[18]", "value": 90, "unit": "%"}, {"measurement": "pest or weed control at 250 g/ha", "setting": "[19]", "value": 0, "unit": "%"}, {"measurement": "pest or weed control at 250 g/ha", "setting": "Avena fatua (AVEFA) [20]", "value": 90, "unit": "%"}, {"measurement": "pest or weed control at 250 g/ha", "setting": "[21]", "value": 100, "unit": "%"}, {"measurement": "pest or weed control at 250 g/ha", "setting": "Setaria faberi (SETFA) [22]", "value": 100, "unit": "%"}, {"measurement": "melting point", "value": "123 to 124", "unit": "°C"}]}]}
